From the OPERA property sets (Mansouri et al. 2018)

Settings: 25.0 °C

SMILES	log10 OH rate constant (cm³/molecule/s)
Clc1ccc(-c2ccccc2Cl)cc1Cl	-12
Clc1cc(Cl)c(-c2ccccc2)cc1Cl	-11.9
Clc1c(Cl)c(Cl)c(-c2ccccc2)c(Cl)c1Cl	-12
Clc1ccc(Cl)c(-c2c(Cl)ccc(Cl)c2Cl)c1	-12.4
Clc1ccc(-c2ccc(Cl)cc2Cl)cc1	-12
Clc1ccc(-c2cc(Cl)ccc2Cl)cc1	-11.9
Clc1ccc(-c2ccc(Cl)cc2Cl)c(Cl)c1	-12
Clc1ccc(-c2ccccc2)c(Cl)c1	-11.6
Clc1ccc(-c2c(Cl)ccc(Cl)c2Cl)cc1Cl	-12.2
Clc1ccc(Cl)c(-c2cccc(Cl)c2Cl)c1	-12.1
